Values of other authors, collected in patent US12029808B2, “Kit and method for dyeing keratinous material by means of aminosilicone and a chromophoric compound” (Henkel AG & Co. KGaA, priority 2019, dated 2024).

details: 25° C.

| Compound | solubility in water | solubility in water (in words) |
| --- | --- | --- |
| CCN(Cc1cccc(S(=O)(=O)[O-])c1)c1ccc(C(=C2C=CC(=[N+](CC)Cc3cccc(S(=O)(=O)[O-])c3)C=C2)c2ccccc2S(=O)(=O)[O-])cc1.[Na+].[Na+] [Acid Blue 9] | more than 20 wt. % | – |
| O=S(=O)([O-])c1ccc(N=Nc2c(O)ccc3ccccc23)cc1.[Na+] [Acid Orange 7, sodium salt of 4-[(2-hydroxy-1-naphthyl)azo]benzene sulphonate] | more than 7 g/L | – |
| Nc1cc(S(=O)(=O)[O-])cc2cc(S(=O)(=O)[O-])c(N=Nc3ccccc3)c(O)c12.[Na+].[Na+] [Acid Red 33, diantrium salt of 5-amino-4-hydroxy-3-(phenylazo)-naphthalene-2,7-disulphonate] | 2.5 mg/mL | – |
| O=C([O-])c1c(Cl)c(Cl)c(Cl)c(Cl)c1-c1c2c(Br)cc(=O)c(Br)c-2oc2c(Br)c(O)cc(Br)c12.O=C([O-])c1c(Cl)c(Cl)c(Cl)c(Cl)c1-c1c2c(Br)cc(=O)c(Br)c-2oc2c(Br)c(O)cc(Br)c12.[Na+].[Na+] [Acid Red 92, disodium salt of 3,4,5,6-tetrachloro-2-(1,4,5,8-tetrabromo-6-hydroxy-3-oxoxanthen-9-yl)benzoic acid] | greater than 10 g/L | – |
| O=C([O-])C1=NN(c2ccc(S(=O)(=O)[O-])cc2)C(=O)C1N=Nc1ccc(S(=O)(=O)[O-])cc1.[Na+].[Na+].[Na+] (stereo not drawn) [Acid Yellow 23, trisodium salt of 4,5-dihydro-5-oxo-1-(4-sulfophenyl)-4-((4-sulfophenyl)azo)-1H-pyrazole-3-carboxylic acid] | – | highly soluble in water |
| mixture of the sodium salts of mono- and sisulfonic acids of 2-(2-quinolyl)-1H-indene-1,3(2H)-dione [Acid Yellow 3] | 20 mg/mL | – |
